Values belong to the compound of their own block, whether it stands above or below them. Ends that are not written are not given here.
Key:
[1] = Solubilization of peptides in DPBS plus 1% HSA; format: physicochemical; settings: Dulbecco's phosphate buffered saline (DPBS) plus 1% HSA
Experimental: 9079A-G peptides were solubilized in Dulbecco's phosphate buffered saline (DPBS) plus 1% HSA. The 9079A-G peptides were tested in the FACScan assay using 10 6 KG1a cells bound with 0.05 ug of the 9079 antibody.

[2] = tested on: 561 antibody; assay: KG1a or tHL60 cell-based FACS assay: release of prebound 561 antibody; settings: for functional release activity: crude peptide
Experimental: Five peptides representing hexapeptides selected from biopannings were synthesized and tested for their ability to serve as release agents in the KG1a or tHL60 cell-based FACS assay.
HPLC-purified peptides 561C and D were tested in the cell-based KG1a FACS assay.
Functional release activity of purified 561D peptide at pH 4 and 6 was tested.
Functional release activity of purified 561C and 561D peptides at pH 4, 5, 6, 7, 8, and 9 was tested.
Functional release activity of crude 561A,B,C,D, M, P, Q, CDR2H, CDR2L, CDR3H, CDR3L, 34B, 34C,34D,34E and 34F peptides adjusted to pH 7 and pH unadjusted (^~ pH3.8-4.3) was tested.

[3] = tested on: anti-CD34 antibody, 9069; assay: KG1a cell FACS assay: release by peptides of 9069 antibody bound to cells; format: cell-based, mouse
Experimental: These experiments were performed following a similar procedure to the binding experiments except that the anti-CD34 antibody, 9069, was incubated with KG1a cells first, followed by addition of peptide. The experimental outline is schematically shown below:
Anti-CD34 antibody, 9069 (0.1 microgram) was incubated with KG1a cells (10^6) for 30 minutes at room temperature (about 22° C.). Molar excesses of 10^5 to 10^6 times the amount of peptide to antibody were tested for the ability to displace the prebound antibody. Peptides were incubated with the antibody-cell complexes for 30 minutes at room temperature (approximately 22° C.). Remaining bound antibody was detected using the FITC-goat anti-mouse IgG reagent described in Example 3.
Analysis of the variant peptide, 9069Q2, was done in parallel with the 9069N peptide. This analysis provides quality control information on reagents including the antibody, 9069, and the cells, KG1a. FACScan assays included a negative control of KG1a cells alone and positive control samples of KG1a cells with the 9069 antibody bound and detected with a secondary antibody, goat-anti-mouse IgG-FITC.

[4] = tested on: 561 antibody; assay: Chemical reagents as enhancers of peptide-dependant release of CD34+ cells from the 561 antibody (FACS assay); format: cell-based
Experimental: The ability of chemical reagents to enhance peptide-dependant release of captured CD34+ cells from the 561 antibody was examined. […] Previous studies indicated a requirement for low pH (about pH4) for effective cell release. Since long-term viability of the low pH-released cells was not known, conditions which could alter the pH to a more neutral value (about pH5-7) were desirable. Reagents which were known to affect electrostatic and hydrogen bonding interactions of proteins were tested in addition to excluded-volume polymers.

[5] = tested on: positively selected CD34+ cells; assay: Culture of positively selected CD34+ cells with cytokines for 12 days; format: cell-based, human; settings: released cells of first experiment
Experimental: The purity of the positively selected CD34+ cells was greater than 90% for both the chymopapain and peptide released cells. In a first experiment, the peptide release method yielded 14×10^6 cells, while the chymopapain release method yielded 20×10^6 cells. In a second experiment, the peptide release method yielded 19×10^6 cells, while the chymopapain release method yielded 22×10^6 cells. The positively selected CD34+ cells from the first experiment were grown in culture with cytokines for 12 days.

[6] = tested on: 9069 antibody; assay: Stem cell selection with 9069 antibody and sheep-anti-mouse beads, release by peptide or chymopapain; format: cell-based; settings: chymopapain release
[7] = tested on: CD34+ cells; assay: CD34+ cell isolation from mobilized peripheral blood on automated cell separation apparatus; format: cell-based, human; settings: 25 mg of peptide 9069N or chymopapain control
Experimental: CD34+ cells were also isolated from human mobilized peripheral blood using the automated cell separation apparatus of co-pending U.S. patent application Ser. No. 08/212,479, and the method essentially as described in co-pending U.S. patent application Ser. No. 08/212,616. Both Ser. No. 08/212,479 and Ser. No. 08/212,616 are herein expressly incorporated by reference. Chymopapain was used as the control releasing agent, and 25 mg of the peptide 9069N (Table 11) was used as the test releasing agent.

[8] = Table 7, mobilized peripheral blood (5.86 % CD34)
[9] = Table 8, mobilized peripheral blood (1.05 % CD34)
[10] = Table 9, bone marrow sample (3.66 % CD34)
[11] = Table 10, mobilized peripheral blood (0.68 % CD34)

Compound: YSRLGFKD [9079B, YSRLGF-KD]
- solubility [1]: solubilized

Compound: A C K W C R (ACKWCR) [561M]
- release of 561 antibody prebound to KG1a or tHL60 cells ([2]; KG1a or tHL60 cells): able to release 561 antibody prebound to KG1a or tHL60 cells
- functional release activity ([2]; pH 7): none of these peptides showed release activity
- functional release activity ([2]; pH unadjusted (around pH 3.8-4.3)): showed functional release activity
- release activity ([2]; low pH (~4)): showed significant release activity
- release activity ([2]; pH 6 or pH 7): did not show release activity

Compound: ADGA-NGGYFP-GAKD [9069H']
- Competition % ([3]; Table 11, 9069 prebound to KG1a cells): 75%
- release activity ([3]; Table 13, yes/no): yes

Compound: [Cl-].[Cl-].[Mg+2] [magnesium chlordie, magnesium chloride]
- enhancement of peptide mediated release of CD34+ selected cells [4]: Less dramatic results

Compound: PGSPLGKD [9079A, PGSPLG-KD]
- solubility [1]: solubilized

Compound: Chymopapain
- expansion in cell number [5]: 68 fold
- % CD34 CELLS Negative Fraction [6, 8]: 2.5%
- % CD34 CELLS Positive Fraction [6, 8]: 94%
- % Capture [6, 8]: 62%
- % Yield [6, 8]: 65.9%
- % CD34 CELLS Negative Fraction [6, 9]: 0.16%
- % CD34 CELLS Positive Fraction [6, 9]: 90.1%
- % Capture [6, 9]: 86.9%
- % Yield [6, 9]: 73.4%
- % CD34 CELLS Negative Fraction [6, 10]: 0.34%
- % CD34 CELLS Positive Fraction [6, 10]: 92.1%
- % Capture [6, 10]: 91.8%
- % Yield [6, 10]: 79.9%
- % CD34 CELLS Negative Fraction [6, 11]: 0.12%
- % CD34 CELLS Positive Fraction [6, 11]: 79.73%
- % Capture [6, 11]: 86.7%
- % Yield [6, 11]: 68%
- cells yielded by release method ([7]; first experiment): 20×10^6 cells
- purity of the positively selected CD34+ cells ([7]; mobilized peripheral blood): greater than 90%
- cells yielded by release method ([7]; second experiment): 22×10^6 cells

Compound: CC(=O)O [sodium acetate]
- enhancement of peptide mediated release of CD34+ selected cells [4]: significant activity as an enhancement reagent

The remaining lines, values ahead:

- solubility [1]: solubilized
Compound: NLQGEFKD [9079D, NLQGEF-KD]

- solubility [1]: solubilized
Compound: QYTQPKD [9079C, QYTQPK-D]

- solubility [1]: solubilized
Compound: KDVYSLWPKD [9079H, KD-VYSLWP-KD]

- solubility [1]: solubilized
Compound: IQEFGVKD [9079F, IQEFGV-KD]

- solubility [1]: insoluble
Compound: RSFYYRD [9079E, RSFYYR-D]
